Data: US20060199966A1, “Indol-2-amides as glycogen phosphorylase inhibitors” (AstraZeneca AB, priority 2003, published 2006)
In brackets after ≈: the same amount, converted by molar mass.

Legend:
conscious dogs = conditions: following a glucagon challenge; cited from earlier work
hepatocytes = conditions: cited from earlier work; for glucose output: glucagon stimulated
db/db and ob/ob mice = conditions: dose related; cited from earlier work
Thermodynamic solubility = assay type: physicochemical; conditions: phosphate buffer, pH 7.4, aqueous buffer, thermodynamic from solid, 0.1 M phosphate at pH7.4 for 24 hours
Experimental: The thermodynamic solubility data for the compounds of the invention as given above may be measured by agitating the compound in 0.1 M phosphate at pH7.4 for 24 hours, then analysis of the supernatant (for example by LCUV/MS) using a solution (for example in DMSO) of known concentration as the calibrant.

[1] = molecular target: T1, Human recombinant liver glycogen phosphorylase a (hrl GPa) (Homo sapiens, UniProt P06737); assay: Glycogen phosphorylase inhibition, multienzyme coupled assay; assay type: biochemical; conditions: hrl GPa 20 nM, 6 hours at 30° C.
T1 sequence (P06737 1-847): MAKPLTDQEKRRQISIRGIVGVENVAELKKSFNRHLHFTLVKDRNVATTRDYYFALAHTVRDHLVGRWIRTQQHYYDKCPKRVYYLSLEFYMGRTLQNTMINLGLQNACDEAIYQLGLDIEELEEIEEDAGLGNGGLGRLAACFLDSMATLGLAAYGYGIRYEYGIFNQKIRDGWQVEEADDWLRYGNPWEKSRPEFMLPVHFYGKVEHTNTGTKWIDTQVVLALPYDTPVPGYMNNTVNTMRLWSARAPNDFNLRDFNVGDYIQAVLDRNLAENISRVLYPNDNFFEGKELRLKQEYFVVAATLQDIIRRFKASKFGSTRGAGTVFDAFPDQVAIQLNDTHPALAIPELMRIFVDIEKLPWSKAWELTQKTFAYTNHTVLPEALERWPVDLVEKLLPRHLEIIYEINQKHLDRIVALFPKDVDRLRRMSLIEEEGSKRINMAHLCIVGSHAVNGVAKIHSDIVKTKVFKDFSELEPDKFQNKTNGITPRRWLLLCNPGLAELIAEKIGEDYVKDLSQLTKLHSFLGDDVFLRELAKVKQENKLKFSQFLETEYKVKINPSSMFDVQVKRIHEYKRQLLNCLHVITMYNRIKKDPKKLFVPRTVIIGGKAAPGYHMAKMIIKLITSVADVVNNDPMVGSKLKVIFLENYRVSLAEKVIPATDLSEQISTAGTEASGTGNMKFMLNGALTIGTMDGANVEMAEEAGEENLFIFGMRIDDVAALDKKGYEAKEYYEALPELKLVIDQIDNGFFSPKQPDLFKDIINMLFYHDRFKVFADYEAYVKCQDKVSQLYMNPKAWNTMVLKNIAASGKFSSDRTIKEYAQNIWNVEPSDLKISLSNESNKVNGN
Experimental: The activity of the compounds is alternatively determined by measuring the inhibitory effect of the compounds on glycogen degradation, the production of glucose-1-phosphate from glycogen is monitored by the multienzyme coupled assay, as described in EP 0 846 464 A2, general method of Pesce et al (Pesce, M A, Bodourian, S H, Harris, R C, and Nicholson, J F (1977) Clinical Chemistry 23, […]). The reactions were in 384 well microplate format in a volume of 50 μl. The change in fluorescence due to the conversion of the co-factor NAD to NADH is measured at 340 nm excitation, 465 nm emission in a Tecan Ultra Multifunctional Microplate Reader. The reaction is in 50 mM […], 3.5 mM KH2PO4, 2.5 mM MgCl2, 2.5 mM ethylene glycol-bis(b-aminoethyl ether) N,N,N,′N′-tetraacetic acid, 100 mM KCl, 8 mM D-(+)-glucose pH7.2, containing 0.5 mM dithiothreitol, the assay buffer solution. Human recombinant liver glycogen phosphorylase a (hrl GPa) 20 nM is pre-incubated in assay buffer solution with 6.25 mM NAD, 1.25 mg type E1 glycogen at 1.25 mg ml^−1 the reagent buffer, for 30 minutes. […] The non-inhibited activity of GPa is measured in the presence of 10 μl 5% DMSO in assay buffer solution and maximum inhibition measured in the presence of 5 mgs ml^−1 N-ethylmaleimide. […] Relative Fluoresence Units (RFUs) are measured at 340 nm excitation, 465 nm emission. […]

solubility at 24 h (Thermodynamic solubility)	IC50 [1]	Compound	glucagon stimulated glycogenolysis (hepatocytes)	glucose output (hepatocytes)	plasma glucose concentration (db/db and ob/ob mice)	further results
–	–	CCN1C(C)=C(C(=O)OC(C)C)C(c2ccccc2Cl)C2=C1COC2=O (stereo not drawn) [Bay R 3401]	–	–	–	arterial plasma glucose (conscious dogs): reduced significantly; hepatic glucose output (conscious dogs): reduced significantly
–	–	CN(C)C(=O)[C@H](O)[C@H](Cc1ccccc1)NC(=O)c1cc2cc(Cl)ccc2[nH]1 [CP91149]	reduce	reduce	reduced, in a dose related manner	–
–	–	O=C(N[C@@H](Cc1ccc(F)cc1)C(=O)N1CCC(O)CC1)c1cc2cc(Cl)ccc2[nH]1 [CP320626]	reduce	reduce	reduced, in a dose related manner	–
173 µM	500 nM	CN(C(=O)[C@@H](N)CO)[C@@H]1c2ccccc2C[C@H]1NC(=O)c1cc2cc(Cl)ccc2[nH]1.Cl [Example 2, 5-Chloro-N-{(1R,2R)-1-[methyl(seryl)amino]-2,3-dihydro-1H-inden-2-yl}-1H-indole-2-carboxamide hydrochloride]	–	–	–	–
119 µM (≈ 50.9 µg/mL)	110 nM	CN(C(=O)[C@H](O)CO)[C@@H]1c2ccccc2C[C@H]1NC(=O)c1cc2cc(Cl)ccc2[nH]1 [Example 19, 5-Chloro-N-{(1R,2R)-1-[[(2R)-2,3-dihydroxypropanoyl](methyl)amino]-2,3-dihydro-1H-inden-2-yl}-1H-indole-2-carboxamide]	–	–	–	–
